Data published in patent publication US20250012802A1, “SYSTEMS AND METHODS FOR PREDICTING RESPONSE TO ORAL MINOXIDIL FOR THE TREATMENT OF ANDROGENETIC ALOPECIA” (Follea International, priority 2023, published 2025).
Several values for one entry are separate records, joined by “and”; a condition that tells them apart may be missing. Identical values can stand only once.

System: androgenetic alopecia
Assay: clinical response to oral minoxidil for androgenetic alopecia
Assay type: in vivo, human
Set-up: Response: scale not given here
Settings: for subjects who responded to oral minoxidil: 5 mg men and 1.25 mg women
Text: Clinical trials with minoxidil for the treatment of androgenetic alopecia have shown statistically significant results for maintenance and growth of hair. […] As described herein, the assessment of hair re-growth is based on one or more of the following parameters: patient self assessment, physician assessment using a standardized scale, global photography assessment, hair diameter measurement, average hair length measurement, average hair diameter measurement, and hair weight measurements. The current inventions provide a method of using biochemical variations in minoxidil sulfotransferase activity as a drug response marker for oral and/or topical minoxidil treatment of androgenetic alopecia. Based on the minoxidil sulfotransferase activity level, the method disclosed herein allows a physician or the patient to select the appropriate treatment and dosage thereof for the treatment of androgenetic alopecia.
In one embodiment, the test is conducted by placing a hair follicle in an assay. The hair follicle may be collected prior to minoxidil therapy, or after start of minoxidil therapy. The follicle is placed in a solution containing minoxidil. The assay is then conducted as described above, and is examined to determine whether there is a SULT1A1 response. The results are then used as a predictor for patients who will respond well to minoxidil, and who will respond better to oral minoxidil versus topical application of minoxidil. […] The first column is optical density resulting from the colorimetric testing. The second column indicates response.
A total of 123 subjects recruited. Overall among subjects with OD<0.37 85% responded to oral minoxidil (5 mg men and 1.25 mg women). Overall among subjects with OD>0.37 43% responded to oral minoxidil (5 mg men and 1.25 mg women). This was statistically significant p=0.0088 (Fischer Exact Test). In this cohort, oral minoxidil only worked on 42% of women and 73% of men.

## Nc1cc(N2CCCCC2)nc(N)[n+]1[O-] [minoxidil]
men
  share of cohort on whom oral minoxidil worked: 73%
Response of the individual patient with the OD of the same line, 0/1 not defined in the patent
  Response: 1 (15×) and 0 (11×)
Subjects with OD<0.37
  subjects who responded to oral minoxidil: 85%
Subjects with OD>0.37
  subjects who responded to oral minoxidil: 43%
women
  share of cohort on whom oral minoxidil worked: 42%
